Patent publication US11679107B2 (Eisai R&D Management Co., Ltd., priority 2018, dated 2023)
Read-outs that look alike come from different tables or passages of the source.

Key:
SF3b complexes = target: T1, SF3b complexes (Homo sapiens, UniProt O75533+Q7RTV0); assay: Scintillation proximity assay (SPA) with [3H]-labelled pladienolide probe; type: binding; details: SF3B1 (WT); geometric mean; read-out: SPA-ATS GMean IC50 (nM) SF3B1 (WT)
T1 construct: endogenous in cells; host or cells: Nuclear extracts; A HeLa S3 extract preparation is described for the in vitro splicing assay
Summary of the method: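 SF3b complexes captured from nuclear extracts on anti-SF3B1 antibody SPA beads; test compounds pre-incubated 30 min before 2.5 nM [3H]-pladienolide probe added, then 30 min incubation. Bound probe read by scintillation; values from non-linear regression of concentration–response curves.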

[1] = tested on: Ad2 variant pre-mRNAs spliced in HeLa S3 nuclear extracts; assay: In vitro splicing assay (IVS), RT-qPCR of spliced product; type: biochemical; details: for IC50: geometric mean; for Ratio Ad2.1/2.2: ratio of IVS IC50 Ad2.1 to Ad2.2
Summary of the method: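 Read-out is one-step TaqMan RT-qPCR of spliced Ad2 mRNA with Ftz as reference, normalized to DMSO and fit by non-linear regression. Reactions held HeLa S3 nuclear extract, 2 ng Ad2-derived pre-mRNA and test compound, with 15 min preincubation. Splicing was started with ATP-containing activation buffer and run 90 min at 30 °C.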

[2] = tested on: NCI-H1568 cells (high MCL1); assay: Cell proliferation and viability, CellTiter-Glo, 72 hours; type: cell-based; details: for GI50: geometric mean
Summary of the method: (§1)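 RPMI-1640/10% FBS (Panc: + insulin, FBS 15%); 11-pt half-log dose, ~10 μM-100 pM, 0.1% DMSO; 37° C, 5% CO2; ATP luminescence read; % inhibition vs T0 and vehicle, −100% cidal to 100% uninhibited growth.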

[3] = tested on: Panc 05.04 cells (SF3b K700E mutant); assay: as above; type: cell-based; details: for GI50: geometric mean
Summary of the method: as §1

[4] = Ad2.1 pre-mRNA substrate, read-out: qPCR-IVS-ATS GMean IC50 (nM) Ad2.1
[5] = Ad2.2 pre-mRNA substrate, read-out: qPCR-IVS-ATS GMean IC50 (nM) Ad2.2
[6] = 72 h, NCIH1568.1, -100% = cidal, 0% = static, 100% = uninhibited growth
[7] = NCI-H1568, read-out: CTGlo-ATS GMean GI50 (nM) 72 h NCIH1568.1, 72 h, NCIH1568.1
[8] = 72 h, PANC0504.1, -100% = cidal, 0% = static, 100% = uninhibited growth
[9] = Panc 05.04, read-out: CTGlo-ATS GMean GI50 (nM) 72 h PANC0504.1, 72 h, PANC0504.1
[10] = NCI-H1568, read-out: CTGlo-ATS GMean GI50 (nM) 72 h NCIH1568.1, NCIH1568.1 cells, 72 h
[11] = NCIH1568.1 cells, 72 h, −100% cidal, 0% static, 100% maximal growth
[12] = PANC0504.1 cells, 72 h, −100% cidal, 0% static, 100% maximal growth
[13] = Panc 05.04, read-out: CTGlo-ATS GMean GI50 (nM) 72 h PANC0504.1, PANC0504.1 cells, 72 h
[14] = NCI-H1568, 72 h, read-out: CTGlo-ATS GMean GI50 (nM) 72 h NCIH1568.1, 72 h, NCIH1568.1
[15] = Panc 05.04, 72 h, read-out: CTGlo-ATS GMean GI50 (nM) 72 h PANC0504.1, 72 h, PANC0504.1

| Structure (SMILES) | IC50 (SF3b complexes) [nM] | IC50 [1, 4] [nM] | IC50 [1, 5] [nM] | Ratio Ad2.1/2.2 [1] | CTGlo-ATS Mean MinResponse % 72 h NCIH1568.1 [2, 6] [%] | GI50 [2, 7] [nM] | CTGlo-ATS Mean MinResponse % 72 h PANC0504.1 [3, 8] [%] | GI50 [3, 9] [nM] | GI50 [2, 10] [nM] | CTGlo-ATS Mean MinResponse % 72 h NCIH1568.1 [2, 11] [%] | CTGlo-ATS Mean MinResponse % 72 h PANC0504.1 [3, 12] [%] | GI50 [3, 13] [nM] | GI50 ([2]; NCI-H1568, 72 h, read-out: CTGlo-ATS GMean GI50 (nM) 72 h NCIH1568.1, NCIH1568.1 cells, 72 h) [nM] | GI50 ([3]; Panc 05.04, 72 h, read-out: CTGlo-ATS GMean GI50 (nM) 72 h PANC0504.1, PANC0504.1 cells, 72 h) [nM] | GI50 [2, 14] [nM] | GI50 [3, 15] [nM] |
| --- | --- | --- | --- | --- | --- | --- | --- | --- | --- | --- | --- | --- | --- | --- | --- | --- |
| C/C(=C\c1cccc(S(=O)(=O)NC(C)(C)C)c1)[C@H]1OC(=O)C[C@H](O)CC[C@H](C)[C@@H](OC(=O)N2CCN(C)CC2)/C=C/[C@@H]1C [Compound 208, [(2S,3S,4E,6R,7S,10R)-2-[(E)-1-[3-(tert-butylsulfamoyl)phenyl]prop-1-en-2-yl]-10-hydroxy-3,7-dimethyl-12-oxo-1-oxacyclododec-4-en-6-yl] 4-methylpiperazine-1-carboxylate] | 1.77 | 1380 | 25.1 | 54.813 | −47.371 | 11.6 | −94.342 | 9.27 |  |  |  |  |  |  |  |  |
| C/C(=C\c1cc(N2CCOCC2)ccc1F)[C@H]1OC(=O)C[C@H](O)CC[C@H](C)[C@@H](OC(=O)N2CCN(C)CC2)/C=C/[C@@H]1C [Compound 7] | 2.88 | 1250 | 25.1 |  |  |  |  |  | 15.1 | −56.359 | −89.436 | 8.96 |  |  |  |  |
| C/C(=C\c1cc(F)cc(N2CCN(CCO)C(=O)C2)c1)[C@H]1OC(=O)C[C@H](O)CC[C@H](C)[C@@H](OC(=O)N2CCN(C)CC2)/C=C/[C@@H]1C [Compound 104] | 2.1 | 31.9 | 13.9 |  |  |  |  |  | 5.1 | −69.040 | −86.795 | 4.58 |  |  |  |  |
| CC[C@H](O)[C@@H](C)CN1CCN(c2cc(F)cc(/C=C(\C)[C@H]3OC(=O)C[C@H](O)CC[C@H](C)[C@@H](OC(=O)N4CCN(C)CC4)/C=C/[C@@H]3C)c2)CC1 [Compound 71] | 3.71 | 29.7 | 18.9 |  |  |  |  |  | 6.39 | −92.527 | −68.599 | 11.5 |  |  |  |  |
| C/C(=C\c1cnn(Cc2ccncc2)c1)[C@H]1OC(=O)C[C@H](O)CC[C@H](C)[C@@H](OC(=O)N2CCN(C)CC2)/C=C/[C@@H]1C [Compound 102] | 29.8 | > 25000 | 507 |  |  |  |  |  | 4900 | 31.099 | 24.371 | 3020 |  |  |  |  |
| CNS(=O)(=O)c1cccc(/C=C(\C)[C@H]2OC(=O)CC(O)CCC(C)[C@@H](OC(=O)N3CCN(C)CC3)/C=C/[C@@H]2C)c1 (stereo in doubt) [Compound 212, [(2S,3S,4E,6R,7R,10S)-10-hydroxy-3,7-dimethyl-2-[(E)-1-[3-(methylsulfamoyl)phenyl]prop-1-en-2-yl]-12-oxo-1-oxacyclododec-4-en-6-yl] 4-methylpiperazine-1-carboxylate] | 8.79 | > 25000 | 93.8 | 266.536 | −49.302 | 129 | −59.089 | 60.2 |  |  |  |  |  |  |  |  |
| C/C(=C\c1cc(F)cc(N(C)C2CCS(=O)(=O)CC2)c1)[C@H]1OC(=O)C[C@H](O)CC[C@H](C)[C@@H](OC(=O)N2CCN(C)CC2)/C=C/[C@@H]1C [Compound 172] | 5.58 | 22.6 | 15.4 |  |  |  |  |  | 8.72 | −74.177 | −88.455 | 17.9 |  |  |  |  |
| C/C(=C\c1cccc(S(=O)(=O)N2CCN(C=O)CC2)c1)[C@H]1OC(=O)C[C@H](O)CC[C@H](C)[C@@H](OC(=O)N2CCN(C)CC2)/C=C/[C@@H]1C [Compound 94] | 7.48 | 5570 | 37.5 |  |  |  |  |  | 35.5 | −40.948 | −94.671 | 30.4 |  |  |  |  |
| C/C(=C\c1cc(F)cc(N2CCOC[C@H]2C)c1)[C@H]1OC(=O)C[C@H](O)CC[C@H](C)[C@@H](OC(=O)N2CCN(C)CC2)/C=C/[C@@H]1C [Compound 75] | 2.15 | 19 | 15.4 |  |  |  |  |  | 3.58 | −85.064 | −81.995 | 3.69 |  |  |  |  |
| C/C(=C\c1cccc2[nH]ncc12)[C@H]1OC(=O)C[C@H](O)CC[C@H](C)[C@@H](OC(=O)N2CCN(C)CC2)/C=C/[C@@H]1C [Compound 5] | 6.61 | 1500 | 94.7 |  |  |  |  |  | 59.7 | −38.293 | −17.631 | 47.2 |  |  |  |  |
| C/C(=C\c1cc(F)cc(N(C)C)c1)[C@H]1OC(=O)C[C@H](O)CC[C@H](C)[C@@H](OC(=O)N2CCN(C)CC2)/C=C/[C@@H]1C [Compound 29] | 5.6 | > 25000 | 90.7 |  |  |  |  |  | 53.8 | −19.404 | −90.429 | 34.7 |  |  |  |  |
| C/C(=C\c1cc(F)cc(F)c1)[C@H]1OC(=O)C[C@H](O)CC[C@H](C)[C@@H](OC(=O)N2CCN(C)CC2)/C=C/[C@@H]1C [Compound 28] | 10.1 | 8.55 | 61.5 |  |  |  |  |  |  | −39.539 | −41.132 |  | 89.6 | 42.9 |  |  |
| CCNS(=O)(=O)c1cccc(/C=C(\C)[C@H]2OC(=O)CC(O)CCC(C)[C@@H](OC(=O)N3CCN(C)CC3)/C=C/[C@@H]2C)c1 (stereo in doubt) [Compound 210, [(2S,3S,4E,6R,7R,10S)-2-[(E)-1-[3-(ethylsulfamoyl)phenyl]prop-1-en-2-yl]-10-hydroxy-3,7-dimethyl-12-oxo-1-oxacyclododec-4-en-6-yl] 4-methylpiperazine-1-carboxylate] | 4.35 | 11000 | 32.7 | 336.112 | −51.154 |  | −96.896 |  |  |  |  |  |  |  | 17 | 27.8 |
| C/C(=C\c1cccc(S(=O)(=O)N2CCCC2)c1)[C@H]1OC(=O)C[C@H](O)CC[C@H](C)[C@@H](OC(=O)N2CCN(C)CC2)/C=C/[C@@H]1C [Compound 214, [(2S,3S,4E,6R,7S,10R)-10-hydroxy-3,7-dimethyl-12-oxo-2-[(E)-1-(3-pyrrolidin-1-ylsulfonylphenyl)prop-1-en-2-yl]-1-oxacyclododec-4-en-6-yl] 4-methylpiperazine-1-carboxylate] | 2.3 | 3920 | 19.2 | 204.217 | −48.793 |  | −91.986 |  |  |  |  |  |  |  | 6.37 | 3.29 |
| C=CS(=O)(=O)N1CCN(c2cc(F)cc(/C=C(\C)[C@H]3OC(=O)C[C@H](O)CC[C@H](C)[C@@H](OC(=O)N4CCN(C)CC4)/C=C/[C@@H]3C)c2)CC1 [Compound 74] | 4.88 | 34.5 | 20.8 |  |  |  |  |  | 4.69 | −99.528 | −64.747 | 13.1 |  |  |  |  |
| C/C(=C\c1cc(F)cc(N2CCN(S(C)(=O)=O)CC2)c1)[C@H]1OC(=O)C[C@H](O)CC[C@H](C)[C@@H](OC(=O)N2CCN(C)CC2)/C=C/[C@@H]1C [Compound 58] | 6.54 | 30.1 | 22 |  |  |  |  |  | 7 | −70.067 | −91.132 | 6.97 |  |  |  |  |
